Measured values published in PMC10154249, “Unique progerin C-terminal peptide ameliorates Hutchinson–Gilford progeria syndrome phenotype by rescuing BUBR1” (Nature Aging, 2023).
Several values for one entry are separate records, joined by “and”; a condition that tells them apart may be missing. Equal values may be shown once.

Key:
[1] = test system: BUBR1 / CyclinA2 in HGADFN003 cells; assay: Western blot of BUBR1 and CyclinA2 in HGADFN003 cells; type: cell-based, human
Procedure: Western blot was performed as previously described. Cells were lysed in 1× Laemmli sample buffer after washing twice in cold PBS without calcium and magnesium. Protein concentrations were determined using the bicinchoninic acid (BCA) protein assay. Protein lysates were subjected to SDS–PAGE, transferred to 0.45-μm pore size hydrophobic PVDF transfer membrane (Merck Millipore), detected with the appropriate primary antibodies coupled with horseradish peroxidase-conjugated corresponding secondary antibodies, and visualized using enhanced chemiluminescence ECL reagent (GE Healthcare). The Tanon 5500 high-definition low-illumination CCD system (Tanon FLI Capture v.1.02) was used to capture chemiluminescent signals.

HGADFN167 cells = assay: Ki67 immunofluorescence of HGADFN167 cells; type: cell-based, human
Procedure: (§1) Immunofluorescence was performed as described previously. Cells were plated on cover slips in 12-well plates, left overnight before the treatment. Cells were fixed in 1% formaldehyde in culture medium for 10 min at 37 °C and permeabilized with 0.2% Triton X-100 in PBS for 10 min at room temperature. Cells were washed twice in PBS and blocked for 1 h with 5% BSA in PBS and then incubated with primary antibodies at 4 °C overnight, washed three times in PBS and incubated with secondary antibodies for 1 h at room temperature. Cell nuclei were counterstained with a 500 nM concentration of 4,6-diamidino-2-phenylindole (DAPI) (Sigma). Images were acquired by a fluorescence microscope (OLYMPUS FV-1000, Carl Zeiss LSM880 or Leica DMi8) and analyzed with software NIS-Elements AR v.5.0.1 (Nikon), FLUOVIEW v.4.2b (OLYMPUS), ZEN v.2.3 SP1 (Carl Zeiss) and Leica Application Suite X v.3.6.0.24 (Leica). Cells were quantified by investigators who were blinded to the identity of the analyzed cell.

IMR90-progerin cells = assay: 53BP1 foci in IMR90-progerin cells; type: cell-based, human; conditions: IMR90-Flag-progerin+UPCP
Procedure: as §1

[2] = test system: lamin B1, p21 and IL-6 in skin of Lmna^G609G/G609G mice; assay: IHC of lamin B1, p21 and IL-6 in skin of Lmna^G609G/G609G mice; type: in vivo, mouse; conditions: for p21 positive cells / IL-6 positive cells / LaminB1 positive cells: LmnaG609G/G609G+UPCP; for p21 positive cells: P=0.0003 vs LmnaG609G/G609G-Mock; for IL-6 positive cells: P=0.0012 vs LmnaG609G/G609G-Mock; for LaminB1 positive cells: P=0.0142 vs LmnaG609G/G609G-Mock
Procedure: (§2) For UPCP injection, 14-day-old Lmna^G609G/G609G mice were injected intraperitoneally with either PBS or UPCP (20 mg kg^–1, every other day) and wild-type mice were injected with PBS. All phenotypic analyses were performed after 12 weeks of treatment with UPCP. Bodyweight and lifespan were monitored after UPCP treatment. The survival rate was analyzed by the Kaplan–Meier method. We only included mice that were of sufficient bodyweight at the start of the experiment, typically at least 80% of the average littermate weight of the same sex and genotype. All animals meeting criteria for inclusion were then divided randomly into three groups according to genotype (Lmna^+/+, Lmna^G609G/G609G-Mock and Lmna^G609G/G609G-UPCP).
(§3) For histological analyses, mice of the indicated genotypes were perfused with PBS, then with 4% paraformaldehyde (PFA). Whole organs were incubated in 4% PFA at 4 °C for 16 h. All samples were paraffin embedded and sectioning by Servicebio. Subsequently, the tissues were deparaffinized and rehydrated before hematoxylin-eosin (HE) or Masson staining or immunohistochemistry (IHC). HE staining was performed using an HE Kit (Absin, catalog no. abs9217), and Masson staining was performed using Masson’s Trichrome Stain Kit (Absin, catalog no. abs9347) according to the manufacturer’s instructions. The thickness of the layers or the areas of fibrosis in the tissues were calculated using ImageJ software by a blinded investigator. For IHC, the sections were completed by the Servicebio. The images were acquired by a microscope (Leica DMi8) and analyzed with Leica Application Suite X v.3.6.0.24 (Leica). For BubR1, cytoplasmic staining in cells was scored on the intensity of staining and the proportion of positive cells by a blinded investigator. The intensity of the staining was graded as 0 (negative, no color), 1 (low positive, light yellow), 2 (positive, brown yellow) or 3 (high positive, brown), and the number of positive cells was graded as 0 (<5%), 1 (5–25%), 2 (25–50%), 3 (51–75%) or 4 (>75%). The final score was defined as staining number score multiplied by staining color score. For lamin B1, p21 or IL-6, the proportion of positive cells was used to quantify the expression of protein in tissues by a blinded investigator.

[3] = test system: skin of Lmna^G609G/G609G mice; assay: Histology of skin (epidermis, subcutaneous fat layers); type: in vivo, mouse; conditions: 13 weeks; for subcutaneous fat layers, Mean / subcutaneous fat layers: 20 mg kg^–1 i.p.
Procedure: as §2, with “All phenotypic analyses were performed after 12 weeks of treatment with UPCP.” left out
as §3

[4] = test system: muscle of Lmna^G609G/G609G mice; assay: Masson staining of muscle (fibrosis); type: in vivo, mouse; conditions: 13 weeks
Procedure: as §2, with “All phenotypic analyses were performed after 12 weeks of treatment with UPCP.” left out
as §3

[5] = skin, 20 mg kg^–1 i.p. every other day
[6] = 20 mg kg^–1 i.p. every other day

Substance: H-YGRKKRRQRRRYNLRSRTVLCGTCGQPADKASASGSGAQSPQNCSIM-OH (cysteines drawn unpaired) [UPCP, unique progerin C-terminal peptide]
- BUBR1 expression (FTI-277/UPCP comparison, words) ([1]; HGADFN003): increasing expression of BUBR1
- CyclinA2 expression (FTI-277/UPCP comparison, words) ([1]; HGADFN003): increasing expression of BUBR1, CyclinA2
- BUBR1 abundance ([1]; HGADFN003 cells, UPCP 0–10 μM, Western blot): upregulated BUBR1
- Ki67 positive cells (HGADFN167 cells; HGADFN167, replicate 1): 53%
- Ki67 positive cells (HGADFN167 cells; HGADFN167, replicate 2): 45%
- Ki67 positive cells (HGADFN167 cells; HGADFN167, replicate 3): 56%
- 53BP1 foci per cell, n>10 (IMR90-progerin cells; replicate 1): 54%
- 53BP1 foci per cell, n≤10 (IMR90-progerin cells; replicate 1): 46%
- 53BP1 foci per cell, n>10 (IMR90-progerin cells; replicate 2): 43%
- 53BP1 foci per cell, n≤10 (IMR90-progerin cells; replicate 2): 57%
- 53BP1 foci per cell, n>10 (IMR90-progerin cells; replicate 3): 59%
- 53BP1 foci per cell, n≤10 (IMR90-progerin cells; replicate 3): 41%
- p21 positive cells ([2]; replicate 1): 0.2237
- IL-6 positive cells ([2]; replicate 1): 0.4348
- LaminB1 positive cells ([2]; replicate 1): 0.5254
- p21 positive cells ([2]; replicate 2): 0.3636
- IL-6 positive cells ([2]; replicate 2): 0.5192
- LaminB1 positive cells ([2]; replicate 2): 0.7647
- p21 positive cells ([2]; replicate 3): 0.2043
- IL-6 positive cells ([2]; replicate 3): 0.5517
- LaminB1 positive cells ([2]; replicate 3): 0.3729
- p21 positive cells ([2]; replicate 4): 0.2308
- IL-6 positive cells ([2]; replicate 4): 0.5702
- LaminB1 positive cells ([2]; replicate 4): 0.6429
- p21 positive cells ([2]; replicate 5): 0.3175
- IL-6 positive cells ([2]; replicate 5): 0.5897
- LaminB1 positive cells ([2]; replicate 5): 0.6739
- p21 positive cells ([2]; replicate 6): 0.1875
- IL-6 positive cells ([2]; replicate 6): 0.375
- LaminB1 positive cells ([2]; replicate 6): 0.598
- number of lamin B1 positive cells [2, 5]: increase the number of lamin B1 positive cells
- p21 and IL-6 expression [2, 5]: reduce p21 and IL-6 expression in the skin
- dermal fat loss [3, 6]: improved
- epidermal thinning [3, 6]: improved
- subcutaneous fat layers, Mean ([3]; sample 1, mean of 3 measurements): 0.2193 mm
- subcutaneous fat layers ([3]; sample 1, measurement 1): 0.2 mm
- subcutaneous fat layers ([3]; sample 1, measurement 2): 0.243 mm
- subcutaneous fat layers ([3]; sample 1, measurement 3): 0.215 mm
- subcutaneous fat layers, Mean ([3]; sample 2, mean of 3 measurements): 0.1593 mm
- subcutaneous fat layers ([3]; sample 2, measurement 1): 0.146 mm
- subcutaneous fat layers ([3]; sample 2, measurement 2): 0.185 mm
- subcutaneous fat layers ([3]; sample 2, measurement 3): 0.147 mm
- subcutaneous fat layers, Mean ([3]; sample 3, mean of 3 measurements): 0.1467 mm
- subcutaneous fat layers ([3]; sample 3, measurement 1): 0.174 mm
- subcutaneous fat layers ([3]; sample 3, measurement 2): 0.153 mm
- subcutaneous fat layers ([3]; sample 3, measurement 3): 0.113 mm
- fibrosis, muscle [4, 6]: decrease of fibrosis in the muscle
- fibrosis area/ total area, muscle ([4]; 20 mg kg^–1 i.p., replicate 1): 0.003895 and 0.3895%
- fibrosis area, muscle ([4]; 20 mg kg^–1 i.p., replicate 1, total area 340.18): 1.325
- fibrosis area, muscle ([4]; 20 mg kg^–1 i.p., replicate 2, total area 353.151): 1.196
- fibrosis area, muscle ([4]; 20 mg kg^–1 i.p., replicate 3, total area 365.081): 2.133
